Source: patent US6989396B2, “Tropane alkaloid multidrug resistance inhibitors from Erythroxylum pervillei and use of the same” (The Board of Trustees of the University of Illinois, priority 2001, dated 2006)
Values after ≈ are worked out from the molar mass of the structure shown. Values joined by “and” are separate entries in the source; they are usually repeats but may differ in a detail not shown here. Equal values may be shown once. Read-outs that look alike come from different tables or passages of the source.

How the values were obtained:
KB-V1, drug resistant KB = test: In vitro cytotoxicity, human tumor panel: KB-V1 with or without vinblastine; type: cell-based; conditions: for IC50: Homo sapiens, KB-V1, drug-resistant KB assessed in the absence of vinblastine, read-out: ED50 KB-V1−; for ED50 KB-V1+: drug resistant KB assessed in presence of vinblastine (1 μg/mL)
Method: (§1) Cytotoxicity assay. Compounds 1–9 were evaluated for cytotoxic activity against a panel of human cancer cell lines, including KB-V1 in the presence and absence of VLB, according to an established protocol (68).

Col2, colon cancer = test: In vitro cytotoxicity, human tumor panel: Col2; type: cell-based; conditions: Homo sapiens, read-out: ED50 Col2
Method: as §1

[1] = tested on: LNCaP, hormone-dependent prostate cancer; test: In vitro cytotoxicity, human tumor panel: LNCaP; type: cell-based; conditions: Homo sapiens, LNCaP, read-out: ED50 LNCaP
Method: as §1

HCT-15, colon = test: In vitro multidrug resistance modulation (DINIB synergy): HCT-15; type: cell-based, human; conditions: increase of cytotoxicity of DINIB 1 × 10^−4 M; modulator μg/mL: verapamil 12.5, cyclosporin A 6.3, pervilleine B 12.5, C 3.1, D 50.0, F 25.0; <25 insignificant, >100 strong synergy
Text: (§2) Alkaloids 5–7 and 9 were further evaluated for their efficacy as potential modulators of P-glycoprotein. This assay assessed the ability of these test compounds to increase the cytotoxicity of an agent of the MDR phenotype {4,9-dihydro-3-iso-butyl-2-methyl-1-(p-nitrophenacyl)-4,9-dioxo-1H-naphth[2-3-d]imidazolium bromide (DINIB)}, compared with an agent not of the MDR phenotype (5-flurouracil), used as a negative control (73, 74).
(§3) In vitro multidrug resistance assay.

UO-31, renal = test: In vitro multidrug resistance modulation (DINIB synergy): UO-31; type: cell-based, human; conditions: increase of cytotoxicity of DINIB 1 × 10^−4 M; modulator μg/mL: verapamil 12.5, cyclosporin A 6.3, pervilleine B 12.5, C 3.1, D 50.0, F 25.0; <25 insignificant, >100 strong synergy
Text: as §2, §3

KB-3 cells = test: Growth inhibitory potential (sulforhodamine B cell survival assay): KB-3; type: cell-based; conditions: Homo sapiens, read-out: IC50 KB-3
Method: (§4) One part of a natural product drug discovery program involves monitoring the potential of plant extracts to reverse multiple drug resistance. […] To investigate the potential of plant extracts or compounds to reverse multidrug-resistance, KB-V1 cells are treated with different concentrations of plant extracts or compounds in the presence (1 μg/ml) or absence of vinblastine.
(§5) Cytotoxic potential. The cytotoxic potential of test substances with KB-3, KB-V1 and KB-8-5 cells was determined as described previously (24). Briefly, various concentrations of test compounds (dissolved in 10 μl of 10% DMSO) were transferred to 96-well plates, and 190 μl aliquots of cell suspensions (5×10^4 cells/ml) were added to each well. The plates then were incubated for 72 hours at 37° C. (100% humidity with a 5% CO2 atmosphere in air), and 100 μl of cold 20% aqueous trichloroacetic acid were added to the growth medium in each well to fix the cells. The cultures were incubated at 4° C. for 30 minutes, washed, air-dried, stained with sulforhodamine B solution, and washed with 1% acetic acid. Finally, 200 μl of 10 mM Tris base were added to each well and the optical densities were determined at 515 nm utilizing an ELISA plate reader. In each case, a zero-day control was performed by adding an equivalent number of cells to several wells and incubating at 37° C. for 30 minutes, and processing as described above. Optical density values obtained with the zero-day control were subtracted, and cell survival, relative to control (solvent-treated) cultures, was calculated. The cytotoxic potential of the compounds with CEM and CEM/VLB100 cells was determined as described by Beck et al. (30). Cells were grown in 24-well plates at a density of 5–6×10^5 cells/ml. At 48 hours, the cell number was determined using a Coulter Counter, with a channelizer to distinguish cells from debris.

CAKI-1, renal = test: In vitro multidrug resistance modulation (DINIB synergy): CAKI-1; type: cell-based, human; conditions: increase of cytotoxicity of DINIB 1 × 10^−4 M; modulator μg/mL: verapamil 12.5, cyclosporin A 6.3, pervilleine B 12.5, C 3.1, D 50.0, F 25.0; <25 insignificant, >100 strong synergy
Text: as §2, §3

[2] = tested on: SW626, human ovarian adenocarcinoma; test: In vitro cytotoxicity, human tumor panel: SW626; type: cell-based; conditions: SW626, read-out: ED50 SW626
Method: as §1

BC1, breast cancer = test: In vitro cytotoxicity, human tumor panel: BC1; type: cell-based; conditions: Homo sapiens, read-out: ED50 BCI
Method: as §1

[3] = tested on: SKVLB (ovarian adenocarcinoma, multidrug resistance); test: Multidrug resistance inhibition in SKVLB (pGp +ve); type: cell-based, human; conditions: Homo sapiens
Lu1, lung cancer = test: In vitro cytotoxicity, human tumor panel: Lu1; type: cell-based; conditions: Homo sapiens, read-out: ED50 Lu1
Method: as §1

[4] = tested on: KB, oral epidermoid carcinoma; test: In vitro cytotoxicity, human tumor panel: KB; type: cell-based; conditions: Homo sapiens, read-out: ED50 KB
Method: as §1

KB-V1 cells [5] = test: Reversal of MDR, cell survival assay: KB-V1 with or without vinblastine; type: cell-based, human; conditions: for IC50: Homo sapiens, KB-V1, absence of vinblastine, 72 hours, read-out: IC50 KB-V1 (−); for Ratio of IC50 values [KB-V1 (−)]/[KB-V1 (+)]: vinblastine 1 μg/ml
Method: as §4
as §5, with “Finally, 200 μl of 10 mM Tris base were added to each well and the optical densities were determined at 515 nm utilizing an ELISA plate reader.” left out

[6] = tested on: SKOV3 (ovarian adenocarcinoma); test: Cytotoxicity in ovarian adenocarcinoma SKOV3 (pGp -ve); type: cell-based; conditions: Homo sapiens, SK-OV-3, read-out: IC50 SKOV3 (pGp − ve)
Method: as §1

KB-V1 cells [7] = test: In vivo hollow fiber test: KB-V1; design: species or system NCr nu/nu mice; conditions: for growth inhibition, administered as single agents: KB-V1 or KB-8-5 cells in hollow fibers implanted into NCr nu/nu mice; for Calculated inhibition (vinblastine + reversing agent as single agents), KB-V1, i.p. site / Calculated inhibition (vinblastine + reversing agent as single agents), KB-V1, s.c. site: summation of single-agent inhibitions; for Observed inhibition from coadministration with vinblastine, KB-V1, s.c. site / Observed inhibition from coadministration with vinblastine, KB-V1, i.p. site: vinblastine 250 μg/kg + reversing agent 0.136 mmol/kg; for Observed inhibition from coadministration with vinblastine, KB-V1, i.p. site / Growth inhibition, single agent, KB-V1, s.c. site: i.p. injection once daily days 3–6; for Growth inhibition, single agent, KB-V1, s.c. site: vinblastine 250 μg/kg, reversing agents 0.136 mmol/kg
Method: (§6) In vivo hollow fiber test. […] Confluent monolayers of KB-3, KB-V1 or KB-8-5 cells were harvested, collected by centrifugation and resuspended in conditioned medium at a concentration of 7.5×10^5 cells/ml.
(§7) Test compounds were administrated once daily by intraperitoneal injection from day 3–6 after implantation. Body weights were measure daily.
(§8) After incubating at 37° C. for 4 hours, the culture medium was aspirated and the samples were washed twice with normal saline containing 2.5% protamine sulfate solution by overnight incubation at 4° C. […] The formazan was extracted from each sample with DMSO (250 μl/well) for 4 hours at room temperature on a rotation platform.

LOX IMVI, melanoma = test: In vitro multidrug resistance modulation (DINIB synergy): LOX IMVI; type: cell-based, human; conditions: increase of cytotoxicity of DINIB 1 × 10^−4 M; modulator μg/mL: verapamil 12.5, cyclosporin A 6.3, pervilleine B 12.5, C 3.1, D 50.0, F 25.0; <25 insignificant, >100 strong synergy
Text: as §2, §3

KB-8-5 cells = test: In vivo hollow fiber test: KB-8-5; design: species or system NCr nu/nu mice; conditions: vinblastine 100 μg/kg; reversing agents 0.136 mmol/kg
Method: as §6, §7, §8

CEM/VLB100 cells = test: MDR reversal in drug-resistant human leukemia CEM/VLB100 cells; type: cell-based; conditions: Homo sapiens; CEM/VLB100 cells; read-out: IC50 value of the cytotoxic drug in the absence of modulator
Method: as §5, with “Finally, 200 μl of 10 mM Tris base were added to each well and the optical densities were determined at 515 nm utilizing an ELISA plate reader.” left out

KB-V1 cells [8] = conditions: growth inhibitory effect of vinblastine; cited from earlier work
[9] = read-out: IC50 BSKVLB (pGp + ve)
[10] = read-out: IC50 SKVLB (pGp + ve), addition of adriamycin

SMILES	IC50 (KB-V1, drug resistant KB) [µg/mL]	ED50 KB-V1+ (KB-V1, drug resistant KB) [µg/mL]	IC50 (Col2, colon cancer) [µg/mL]	IC50 [1] [µg/mL]	synergy value at a 95% confidence level, HCT-15 (HCT-15, colon)	synergy value at a 95% confidence level, UO-31 (UO-31, renal)	IC50 (KB-3 cells; KB3, 72 h) [µM]	synergy value at a 95% confidence level, CAKI-1 (CAKI-1, renal)	IC50 [2] [µg/mL]	IC50 (BC1, breast cancer) [µg/mL]	IC50 [3, 9] [µM]	IC50 [3, 10] [µM]	IC50 (Lu1, lung cancer) [µg/mL]	IC50 [4] [µg/mL]	IC50 (KB-V1 cells [5]) [µM]	Ratio of IC50 values [KB-V1 (−)]/[KB-V1 (+)] (KB-V1 cells [5])	IC50 [6] [µM]	growth inhibition, administered as single agents (KB-V1 cells [7])	Growth inhibition, single agent, KB-V1, s.c. site (KB-V1 cells [7])	synergy value at a 95% confidence level, LOX IMVI (LOX IMVI, melanoma)	further results
COc1cc(C=CC(=O)O[C@H]2C[C@@H]3C[C@H](OC(=O)c4cc(OC)c(OC)c(OC)c4)C[C@H]2N3C)cc(OC)c1OC [Compound 5, 3α-(3,4,5-trimethoxybenzoyloxy)-6β-(3,4,5-trimethoxycinnamoyloxy)tropane]	8.8 (≈ 15.4 µM)	0.1	1.3 (≈ 2.27 µM)	1 (≈ 1.75 µM)	607.6	248.7	> 35	268.1	3.2 (≈ 5.6 µM)	9.4 (≈ 16.4 µM)	> 10	0.12	3.1 (≈ 5.42 µM)	> 20	15	88	3.8	not significantly inhibited	0%	33.3	Calculated inhibition (vinblastine + reversing agent as single agents), KB-V1, i.p. site (KB-V1 cells [7]): 9.4%; Calculated inhibition (vinblastine + reversing agent as single agents), KB-V1, s.c. site (KB-V1 cells [7]): 3.8%; Observed inhibition from coadministration with vinblastine, KB-V1, s.c. site (KB-V1 cells [7]): 1.4 (P = 0.87) %; Observed inhibition from coadministration with vinblastine, KB-V1, i.p. site (KB-V1 cells [7]; listed as pervilleine B): 66.8 (P < 0.0001) %
COc1cc(C=CC(=O)O[C@H]2C[C@@H]3C[C@H](OC(=O)Cc4ccccc4)C[C@H]2N3C)cc(OC)c1OC [Compound 9, 3α-phenylacetoxy-6β-(3,4,5-trimethoxycinnamoyloxy)-tropane]	> 20	0.2	4.9 (≈ 9.89 µM)	> 20	714.7	364.4		342.1	> 20	> 20			> 20	> 20						59.2	melting point: 59 to 61 °C
CC[C@]1(O)C[C@@H]2CN(CCc3c([nH]c4ccccc34)[C@@](C(=O)OC)(c3cc4c(cc3OC)N(C)[C@H]3[C@@](O)(C(=O)OC)[C@H](OC(C)=O)[C@]5(CC)C=CCN6CC[C@]43[C@@H]65)C2)C1 [vinblastine, reference compound]																		not significantly inhibited	3.8% and 0%		Growth inhibition, single agent, KB-8-5, s.c. site (KB-8-5 cells): 2.3%; IC50 (KB-3 cells; KB3, 72 hours): 0.04 µM; IC50 (CEM/VLB100 cells): 5 µM; resistance of KB-V1 cells relative to parental KB-3 cells (KB-V1 cells [8]): > 200 fold; Observed inhibition from coadministration with vinblastine, KB-V1, i.p. site (KB-V1 cells [7]): 60.3%
COc1cc(C=CC(=O)O[C@@H]2C[C@@H]3[C@@H](OC(=O)C=Cc4cc(OC)c(OC)c(OC)c4)[C@@H](O)[C@H](C2)N3C)cc(OC)c1OC [Compound 7, 3α,6β-di-(3,4,5-trimethoxycinnamoyloxy)-7β-hydroxytropane]	9 (≈ 14.7 µM)	0.2	4.9 (≈ 7.98 µM)	14.1 (≈ 23 µM)	758.3	562.7		387.9	6.5 (≈ 10.6 µM)	15 (≈ 24.4 µM)			15.1 (≈ 24.6 µM)	11 (≈ 17.9 µM)						13.2	melting point: 59 to 61 °C
COc1cc(C=CC(=O)O[C@H]2C[C@H]3C[C@H](OC(=O)C=Cc4cc(OC)c(OC)c(OC)c4)[C@@H](C2)N3C)cc(OC)c1OC [Compound 6, 3α,6β-di-(3,4,5-trimethoxycinnamoyloxy)tropane]	9 (≈ 15.1 µM)	0.1	4.1 (≈ 6.86 µM)	> 20	946.7	444.0	3.7	332.3	1.4 (≈ 2.34 µM)	2.8 (≈ 4.68 µM)	> 10	0.08	2.3 (≈ 3.85 µM)	2.2 (≈ 3.68 µM)	15	88	2.8	not significantly inhibited	0%	32.6	Calculated inhibition (vinblastine + reversing agent as single agents), KB-V1, i.p. site (KB-V1 cells [7]): 15.9%; Calculated inhibition (vinblastine + reversing agent as single agents), KB-V1, s.c. site (KB-V1 cells [7]): 3.8%; Observed inhibition from coadministration with vinblastine, KB-V1, s.c. site (KB-V1 cells [7]): 0.2 (P = 0.96) %; Observed inhibition from coadministration with vinblastine, KB-V1, i.p. site (KB-V1 cells [7]; listed as pervilleine C): 77.7 (P < 0.0001) %
